Source: PubChem BioAssay (NCI)
Where “and” joins values, the source holds several entries; their conditions need not be identical. Equal entries are not always repeated.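 Step 1: Grow cells in 96-well plates. Step 2: Expose to compound for 48 hours at 5 concentrations. Step 3: Interpolate endpoints linearly; if unreached, use highest concentration. Abbreviation: GI50, concentration required for 50% inhibition of growth. Definition used: TGI = concentration required for complete inhibition of growth.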

Tests used:
Test in all cases: growth of human tumour cells (NCI), 48 h
RXF 393 renal = test system: RXF 393 renal
CAKI-1 renal = test system: CAKI-1 renal
OVCAR-5 ovarian = test system: OVCAR-5 ovarian
HL-60(TB) leukemia = test system: HL-60(TB) leukemia
NCI-H226 lung = test system: NCI-H226 lung
BT-549 breast = test system: BT-549 breast
MCF7 breast = test system: MCF7 breast
SF-295 CNS = test system: SF-295 CNS
HCT-116 colon = test system: HCT-116 colon
SR leukemia = test system: SR leukemia

`CC(=O)N=C1N(/C=C2\C(=O)Oc3ccccc3C2=O)C(=O)/C(=C/c2ccc(Cl)cc2Cl)N1C` was tested, and the TGI (RXF 393 renal) was > 100 µM, the TGI (CAKI-1 renal) was > 100 µM and the TGI (OVCAR-5 ovarian) was > 100 µM. The TGI (HL-60(TB) leukemia) was > 100 µM, the TGI (NCI-H226 lung) was > 100 µM and the TGI (BT-549 breast) was 62 µM. The TGI (MCF7 breast) was > 100 µM, the TGI (SF-295 CNS) was > 100 µM and the TGI (HCT-116 colon) was > 100 µM. For the same molecule, the TGI (SR leukemia) was 94.2 µM.

`CCNC(=O)c1c(O)c2ccccc2[nH]c1=O` was tested, and the TGI (RXF 393 renal) was > 100 µM, the TGI (CAKI-1 renal) was > 100 µM and the TGI (OVCAR-5 ovarian) was > 100 µM. The TGI (HL-60(TB) leukemia) was > 100 µM, the TGI (NCI-H226 lung) was > 100 µM and the TGI (BT-549 breast) was > 100 µM. For the same molecule, the TGI (MCF7 breast) was > 100 µM, the TGI (SF-295 CNS) was > 100 µM and the TGI (HCT-116 colon) was > 100 µM. The TGI (SR leukemia) was > 100 µM.

In the case of `Cc1ccc(/C=N/Nc2ccc3ccccc3n2)s1`, the TGI (RXF 393 renal) is reported as > 100 µM, the TGI (CAKI-1 renal) is reported as > 100 µM and the TGI (OVCAR-5 ovarian) is reported as > 100 µM. For the same molecule, the TGI (HL-60(TB) leukemia) was > 100 µM, the TGI (NCI-H226 lung) was > 100 µM and the TGI (BT-549 breast) was 68.7 µM. The TGI (MCF7 breast) was 45.1 µM, the TGI (SF-295 CNS) was 38.4 µM and the TGI (HCT-116 colon) was 24 µM. For the same molecule, the TGI (SR leukemia) was > 100 µM.

For `Clc1ccc(C2Nc3ccccc3C3=NCCN32)cc1` (stereo not drawn), the TGI (RXF 393 renal) was 58.8 µM, the TGI (CAKI-1 renal) was > 100 µM and the TGI (OVCAR-5 ovarian) was > 100 µM. It also gave a TGI (HL-60(TB) leukemia) of 57.1 µM, a TGI (BT-549 breast) of 56.5 µM and a TGI (MCF7 breast) of 57.3 µM. The TGI (SF-295 CNS) was 35.4 µM, the TGI (HCT-116 colon) was 71.5 µM and the TGI (SR leukemia) was 59.2 µM.

With `O=C(N/N=C1/C(=O)c2c3ccccc3cc3cccc1c23)c1ccccc1` the TGI (RXF 393 renal) was 56.3 µM, the TGI (CAKI-1 renal) was 70.1 µM and the TGI (OVCAR-5 ovarian) was > 100 µM. For the same molecule, the TGI (HL-60(TB) leukemia) was > 100 µM, the TGI (NCI-H226 lung) was > 66.6 µM and the TGI (BT-549 breast) was > 100 µM. The TGI (MCF7 breast) was > 77.1 µM, the TGI (SF-295 CNS) was 52.2 µM and the TGI (HCT-116 colon) was > 84.8 µM. For the same molecule, the TGI (SR leukemia) was > 100 µM.

For `CCOP(=O)(OCC)C(C#N)Cc1ccco1` (stereo not drawn), the TGI (RXF 393 renal) was > 10 µM, the TGI (CAKI-1 renal) was > 10 µM and the TGI (OVCAR-5 ovarian) was > 10 µM. For the same molecule, the TGI (HL-60(TB) leukemia) was > 10 µM, the TGI (NCI-H226 lung) was > 10 µM and the TGI (BT-549 breast) was > 10 µM. The TGI (MCF7 breast) was > 10 µM, the TGI (SF-295 CNS) was > 10 µM and the TGI (HCT-116 colon) was > 10 µM. The TGI (SR leukemia) was > 10 µM.

`CCOC(=O)C(Cc1cccn1C(=O)OC(C)(C)C)[N+](=O)[O-]` (stereo not drawn) gave a TGI (RXF 393 renal) of 34.4 µM, a TGI (CAKI-1 renal) of 64.5 µM and a TGI (OVCAR-5 ovarian) of 63.2 µM. The TGI (HL-60(TB) leukemia) was 48.1 µM, the TGI (NCI-H226 lung) was 67.3 µM and the TGI (BT-549 breast) was > 100 µM. For the same molecule, the TGI (MCF7 breast) was > 100 µM, the TGI (SF-295 CNS) was 99.4 µM and the TGI (HCT-116 colon) was 51.3 µM. For the same molecule, the TGI (SR leukemia) was 45 µM.

In the case of `CC1OC(OC2C(OC(=O)[C@]34CCC(C)(C)C[C@H]3C3=CC[C@@H]5[C@@]6(C)CC[C@H](OC7OC(C(=O)O)C(O)C(OC8OCC(O)C(O)C8O)C7O)C(C)(C)[C@@H]6CC[C@@]5(C)[C@]3(C)CC4)OCC(O)C2O)C(O)C(OC2OCC(O)C(O)C2O)C1OC1OCC(O)C(OC2OCC(O)C(O)C2O)C1O` (stereo partly drawn), the TGI (RXF 393 renal) is reported as 37.5 µM and 42.9 µM, the TGI (CAKI-1 renal) is reported as 18.8 µM and 23.1 µM and the GI50 (OVCAR-5 ovarian) is reported as 7.26 µM and 17.7 µM. The TGI (OVCAR-5 ovarian) was 20.3 µM and 32.4 µM, the GI50 (HL-60(TB) leukemia) was 2.28 µM and 12.6 µM and the TGI (HL-60(TB) leukemia) was 6.18 µM and 29.5 µM. The GI50 (NCI-H226 lung) was 9.29 µM and 19.1 µM, the TGI (NCI-H226 lung) was 24.6 µM and 39.7 µM and the GI50 (BT-549 breast) was 9.13 µM and 20.3 µM. The TGI (BT-549 breast) was 25.6 µM and 46.8 µM, the TGI (MCF7 breast) was 50.7 µM and > 100 µM and the GI50 (SF-295 CNS) was 5.98 µM and 15.4 µM. The TGI (SF-295 CNS) was 18.9 µM and 30.2 µM, the GI50 (HCT-116 colon) was 8.78 µM and 22.9 µM and the TGI (HCT-116 colon) was 62.5 µM and > 100 µM. The GI50 (SR leukemia) was 2.83 µM and 11.1 µM and the TGI (SR leukemia) was 8.95 µM and 26.8 µM.

`COc1c(O)cc2c(c1O)C(=O)/C(=C/c1ccc(O)cc1)CO2` was tested, and the TGI (RXF 393 renal) was > 100 µM, the TGI (CAKI-1 renal) was 53.9 µM and the TGI (OVCAR-5 ovarian) was 68.6 µM. For the same molecule, the TGI (HL-60(TB) leukemia) was > 100 µM, the TGI (BT-549 breast) was > 100 µM and the TGI (MCF7 breast) was > 100 µM. The TGI (SF-295 CNS) was > 100 µM and the TGI (SR leukemia) was 40.9 µM.

In the case of `c1c[nH]c(C23C4C5C6C4C2C6C53)n1` (stereo not drawn), the TGI (RXF 393 renal) is reported as > 100 µM, the TGI (CAKI-1 renal) is reported as > 100 µM and the TGI (OVCAR-5 ovarian) is reported as > 100 µM. For the same molecule, the TGI (HL-60(TB) leukemia) was > 100 µM, the TGI (NCI-H226 lung) was > 100 µM and the TGI (BT-549 breast) was > 100 µM. The TGI (MCF7 breast) was > 100 µM, the TGI (SF-295 CNS) was > 100 µM and the TGI (HCT-116 colon) was > 100 µM. For the same molecule, the TGI (SR leukemia) was > 100 µM.

For `CC[C@H]1C=CCC[C@@]2(C[C@@H]3CC[C@H]4[C@@H](C(=O)OCCCCCCCCCCCCCCCC(=O)N(CCCN)C[C@@H](O)CCN)[C@@]5(CCC[C@@H](C)O5)NC(=[N+]34)N2)O1`, the TGI (RXF 393 renal) was 4.41 µM, the TGI (CAKI-1 renal) was > 10 µM and the TGI (OVCAR-5 ovarian) was 3.22 µM. The TGI (HL-60(TB) leukemia) was 4.24 µM, the TGI (NCI-H226 lung) was 3.32 µM and the TGI (BT-549 breast) was 4.41 µM. The TGI (MCF7 breast) was 3.16 µM, the TGI (SF-295 CNS) was 3.68 µM and the TGI (HCT-116 colon) was 2.96 µM. For the same molecule, the TGI (SR leukemia) was 3.78 µM.

For `CCOC(=O)CC(=O)Nc1cccc2[nH]cnc12`, the TGI (RXF 393 renal) was > 100 µM, the TGI (CAKI-1 renal) was > 100 µM and the TGI (OVCAR-5 ovarian) was > 100 µM. For the same molecule, the TGI (HL-60(TB) leukemia) was > 100 µM, the TGI (NCI-H226 lung) was > 100 µM and the TGI (BT-549 breast) was > 100 µM. The TGI (MCF7 breast) was > 100 µM, the TGI (SF-295 CNS) was > 100 µM and the TGI (HCT-116 colon) was > 100 µM. The TGI (SR leukemia) was > 100 µM.

For `CN(c1ccccc1Cl)S(=O)(=O)c1ccc([N+](=O)[O-])cc1`, the TGI (RXF 393 renal) was > 100 µM, the TGI (CAKI-1 renal) was > 100 µM and the TGI (OVCAR-5 ovarian) was > 100 µM. For the same molecule, the TGI (HL-60(TB) leukemia) was > 100 µM, the TGI (NCI-H226 lung) was > 100 µM and the TGI (BT-549 breast) was > 100 µM. The TGI (MCF7 breast) was > 100 µM, the TGI (SF-295 CNS) was > 100 µM and the TGI (HCT-116 colon) was > 100 µM. The TGI (SR leukemia) was > 100 µM.

For `CC(C)=CCC/C(C)=C/CC/C(C)=C/CC/C(=C/CC/C(C)=C\CC/C(C)=C/CC/C(C)=C/CC/C(C)=C/Cc1cc(O)ccc1O)CO`, the TGI (RXF 393 renal) was 2 µM, the TGI (CAKI-1 renal) was 4.82 µM and the TGI (OVCAR-5 ovarian) was > 91.5 µM. It also gave a TGI (HL-60(TB) leukemia) of 9.5 µM, a TGI (NCI-H226 lung) of 6.54 µM and a TGI (BT-549 breast) of 12.5 µM. For the same molecule, the TGI (MCF7 breast) was 15.2 µM, the TGI (SF-295 CNS) was 5.85 µM and the TGI (HCT-116 colon) was > 31.9 µM. For the same molecule, the TGI (SR leukemia) was > 37.6 µM.

With `NC1=CN2c3ccccc3N(CC(=O)O)C2C=C1` (stereo not drawn) the TGI (RXF 393 renal) was > 100 µM, the TGI (CAKI-1 renal) was > 100 µM and the TGI (OVCAR-5 ovarian) was > 100 µM. For the same molecule, the TGI (HL-60(TB) leukemia) was > 100 µM, the TGI (NCI-H226 lung) was > 100 µM and the TGI (BT-549 breast) was > 100 µM. For the same molecule, the TGI (MCF7 breast) was > 100 µM, the TGI (SF-295 CNS) was > 100 µM and the TGI (HCT-116 colon) was > 100 µM. For the same molecule, the TGI (SR leukemia) was > 100 µM.

For `O=C(NCc1cccc2ccccc12)N/N=C\c1ccc(Cl)cc1`, the TGI (RXF 393 renal) was > 100 µM, the TGI (CAKI-1 renal) was > 100 µM and the TGI (OVCAR-5 ovarian) was > 100 µM. For the same molecule, the TGI (HL-60(TB) leukemia) was > 100 µM, the TGI (NCI-H226 lung) was > 100 µM and the TGI (BT-549 breast) was > 100 µM. For the same molecule, the TGI (MCF7 breast) was > 100 µM, the TGI (SF-295 CNS) was > 100 µM and the TGI (HCT-116 colon) was > 100 µM. The TGI (SR leukemia) was > 100 µM.

With `CC1=NN(c2nc(N)nc(CC#N)n2)C(C)(C)C1` the TGI (RXF 393 renal) was > 100 µM, the TGI (CAKI-1 renal) was > 100 µM and the TGI (HL-60(TB) leukemia) was > 100 µM. For the same molecule, the TGI (NCI-H226 lung) was > 100 µM, the TGI (BT-549 breast) was > 100 µM and the TGI (MCF7 breast) was > 100 µM. For the same molecule, the TGI (SF-295 CNS) was > 100 µM, the TGI (HCT-116 colon) was > 100 µM and the TGI (SR leukemia) was > 100 µM.
